Values after ≈ are worked out from the molar mass of the structure shown. Active and inactive are the calls of the source. The calls are words filed in the database; no cut-off is given here.
Experiments:
[1] = system: Mycobacterium tuberculosis; assay: Antimycobacterial activity against Mycobacterium tuberculosis H37Rv ATCC 27294 at 6.25 ug/mL by microplate alamar blue assay; type: functional
[2] = system: Mycobacterium tuberculosis; assay: Antimycobacterial activity against Mycobacterium tuberculosis H37Rv ATCC 27294 by microplate alamar blue assay; type: functional
[3] = Inhibition of soybean arachidonate 15-lipoxygenase; design: species or system Glycine max
Substance-P receptor = Substance-P receptor (Homo sapiens, UniProt P25103); assay: Antagonist activity at human NK1 receptor expressed in CHO cells assessed as inhibition of SP-induced intracellular Ca2+ increase by Fura-2 assay; type: functional, cell-based; conditions: read-out: pA2 (converted)
Substance-K receptor = biological target: T1, Substance-K receptor (Homo sapiens, UniProt P21452); assay: Antagonist activity at human NK2 receptor expressed in CHO cells assessed as inhibition of Neurokinin A-induced increase in intracellular Ca2+ increase by Fura-2 assay; type: functional, cell-based; conditions: read-out: pA2 (converted)
T1 sequence (P21452 whole entry): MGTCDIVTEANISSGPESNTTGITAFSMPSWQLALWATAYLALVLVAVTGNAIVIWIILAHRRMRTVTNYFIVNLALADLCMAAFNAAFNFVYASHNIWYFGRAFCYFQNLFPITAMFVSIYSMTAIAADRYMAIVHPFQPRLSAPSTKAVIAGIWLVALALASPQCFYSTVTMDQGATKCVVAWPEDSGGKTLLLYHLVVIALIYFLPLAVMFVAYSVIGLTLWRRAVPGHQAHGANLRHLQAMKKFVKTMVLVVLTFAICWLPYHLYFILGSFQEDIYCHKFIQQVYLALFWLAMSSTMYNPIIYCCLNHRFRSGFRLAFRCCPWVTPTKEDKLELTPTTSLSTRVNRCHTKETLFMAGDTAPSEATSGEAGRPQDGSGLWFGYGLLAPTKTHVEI

Mus musculus [4] = assay: Antiinflammatory activity in […] mouse assessed as inhibition of carrageenan-induced edema after 2 hrs relative to control; type: functional
Mus musculus [5] = assay: Antiinflammatory activity in […] mouse assessed as inhibition of carrageenan-induced edema after 3 hrs relative to control; type: functional
Streptomyces albus = assay: Antibacterial activity against Streptomyces albus at 100 ug/mL; type: functional, organism-based
Aspergillus flavus = assay: Antifungal activity against Aspergillus flavus at 100 ug/mL; type: functional, organism-based
Candida albicans = assay: Antifungal activity against Candida albicans at 100 ug/mL; type: functional, organism-based
Escherichia coli = assay: Antibacterial activity against Escherichia coli at 100 ug/mL; type: functional, organism-based
[6] = system: Mycobacterium tuberculosis; assay: Antimycobacterial activity against Mycobacterium tuberculosis H37Rv by agar diffusion method; type: functional
Estrogen receptor = biological target: T2, Estrogen receptor (Homo sapiens, UniProt P03372)
T2 sequence (P03372 whole entry): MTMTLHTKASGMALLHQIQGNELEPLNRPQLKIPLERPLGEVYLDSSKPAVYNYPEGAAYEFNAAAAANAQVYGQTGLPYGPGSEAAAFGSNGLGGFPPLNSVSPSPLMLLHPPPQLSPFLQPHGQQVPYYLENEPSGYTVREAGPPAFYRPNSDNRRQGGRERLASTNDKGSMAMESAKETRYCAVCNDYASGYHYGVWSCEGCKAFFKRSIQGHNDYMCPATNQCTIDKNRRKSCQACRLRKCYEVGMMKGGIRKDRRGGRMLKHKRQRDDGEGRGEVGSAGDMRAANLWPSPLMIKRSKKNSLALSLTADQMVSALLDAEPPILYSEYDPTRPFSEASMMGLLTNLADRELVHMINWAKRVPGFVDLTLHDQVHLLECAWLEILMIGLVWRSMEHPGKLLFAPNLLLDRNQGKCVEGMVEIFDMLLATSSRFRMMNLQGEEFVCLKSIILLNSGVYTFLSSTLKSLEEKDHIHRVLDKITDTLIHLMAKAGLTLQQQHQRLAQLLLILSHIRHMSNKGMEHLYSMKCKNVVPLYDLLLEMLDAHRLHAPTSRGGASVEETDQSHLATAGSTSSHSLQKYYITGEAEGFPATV
Description: Agonist activity at estrogen receptor

[7] = system: Mycobacterium tuberculosis; assay: Ratio MIC for ciprofloxacin to compound for Mycobacterium tuberculosis H37Rv by agar diffusion method; type: functional
[8] = system: Mycobacterium tuberculosis; assay: Ratio MIC for ethambutol to compound for Mycobacterium tuberculosis H37Rv by agar diffusion method; type: functional
[9] = system: Trypanosoma brucei rhodesiense; assay: Antitrypanosomal activity against Trypanosoma brucei rhodesiense; type: functional
Leishmania donovani = assay: Antileishmanial activity against Leishmania donovani; type: functional
Pichia kudriavzevii = assay: Antifungal activity against Candida krusei at 32 ug/mL; type: functional, organism-based
[10] = biological target: T3, Polyunsaturated fatty acid lipoxygenase ALOX15 (Oryctolagus cuniculus, UniProt P12530); assay: Inhibition of rabbit reticulocytes arachidonate 15-lipoxygenase
T3 sequence (P12530 whole entry): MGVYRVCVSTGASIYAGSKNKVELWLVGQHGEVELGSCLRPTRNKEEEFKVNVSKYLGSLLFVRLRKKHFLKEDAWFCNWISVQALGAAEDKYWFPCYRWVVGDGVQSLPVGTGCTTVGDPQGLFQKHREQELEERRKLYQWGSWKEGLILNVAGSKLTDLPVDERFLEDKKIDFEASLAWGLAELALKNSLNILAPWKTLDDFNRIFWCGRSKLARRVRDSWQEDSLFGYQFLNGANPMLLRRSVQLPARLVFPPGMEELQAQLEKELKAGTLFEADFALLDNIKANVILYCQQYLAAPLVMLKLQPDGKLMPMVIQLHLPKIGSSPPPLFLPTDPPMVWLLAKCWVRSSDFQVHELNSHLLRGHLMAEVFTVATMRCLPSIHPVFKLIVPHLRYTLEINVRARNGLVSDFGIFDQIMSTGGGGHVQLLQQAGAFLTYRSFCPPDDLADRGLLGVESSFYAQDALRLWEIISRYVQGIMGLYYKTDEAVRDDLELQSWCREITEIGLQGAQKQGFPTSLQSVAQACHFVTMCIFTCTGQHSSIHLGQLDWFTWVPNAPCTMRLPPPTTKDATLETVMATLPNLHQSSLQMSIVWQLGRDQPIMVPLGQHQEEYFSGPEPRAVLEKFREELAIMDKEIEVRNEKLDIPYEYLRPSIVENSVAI

Plasmodium falciparum = assay: Antiplasmodial activity against Plasmodium falciparum; type: functional
[11] = Antioxidant activity assessed as inhibition of lipid peroxidation after 30 mins; type: functional
Trypanosoma cruzi = assay: Antitrypanosomal activity against Trypanosoma cruzi; type: functional
Histamine H3 receptor [12] = biological target: Histamine H3 receptor (Homo sapiens, UniProt Q9Y5N1); assay: Antagonist activity at human histamine H3 receptor expressed in […] cells; type: functional, cell-based, SK-N-MC; conditions: read-out: pA2 (converted)
Albumin = Albumin (Homo sapiens, UniProt P02768); assay: Binding affinity to human serum albumin; type: ADME; conditions: isolated protein
[13] = Half life in human liver microsomes; type: ADME, Microsome
Histamine H3 receptor [14] = biological target: Histamine H3 receptor (Rattus norvegicus, UniProt Q9QYN8); assay: Antagonist activity at rat histamine H3 receptor expressed in […] cells; type: functional, cell-based, SK-N-MC; conditions: read-out: pA2 (converted)
[15] = Apparent permeability across human Caco2 cells; type: ADME, cell-based; conditions: Caco-2

Substance-P receptor, sequence (P25103 whole entry): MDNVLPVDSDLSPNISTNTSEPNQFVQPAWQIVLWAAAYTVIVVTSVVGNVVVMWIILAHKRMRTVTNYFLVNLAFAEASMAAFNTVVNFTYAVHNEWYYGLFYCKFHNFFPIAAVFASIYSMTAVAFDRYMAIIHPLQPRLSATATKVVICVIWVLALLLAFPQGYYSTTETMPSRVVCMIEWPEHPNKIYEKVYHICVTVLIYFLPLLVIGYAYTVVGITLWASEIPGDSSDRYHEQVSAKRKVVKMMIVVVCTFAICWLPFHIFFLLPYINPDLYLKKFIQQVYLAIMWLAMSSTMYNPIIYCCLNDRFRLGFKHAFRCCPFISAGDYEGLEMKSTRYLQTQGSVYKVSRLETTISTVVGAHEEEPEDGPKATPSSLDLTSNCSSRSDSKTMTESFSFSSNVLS
Albumin, sequence (P02768 whole entry): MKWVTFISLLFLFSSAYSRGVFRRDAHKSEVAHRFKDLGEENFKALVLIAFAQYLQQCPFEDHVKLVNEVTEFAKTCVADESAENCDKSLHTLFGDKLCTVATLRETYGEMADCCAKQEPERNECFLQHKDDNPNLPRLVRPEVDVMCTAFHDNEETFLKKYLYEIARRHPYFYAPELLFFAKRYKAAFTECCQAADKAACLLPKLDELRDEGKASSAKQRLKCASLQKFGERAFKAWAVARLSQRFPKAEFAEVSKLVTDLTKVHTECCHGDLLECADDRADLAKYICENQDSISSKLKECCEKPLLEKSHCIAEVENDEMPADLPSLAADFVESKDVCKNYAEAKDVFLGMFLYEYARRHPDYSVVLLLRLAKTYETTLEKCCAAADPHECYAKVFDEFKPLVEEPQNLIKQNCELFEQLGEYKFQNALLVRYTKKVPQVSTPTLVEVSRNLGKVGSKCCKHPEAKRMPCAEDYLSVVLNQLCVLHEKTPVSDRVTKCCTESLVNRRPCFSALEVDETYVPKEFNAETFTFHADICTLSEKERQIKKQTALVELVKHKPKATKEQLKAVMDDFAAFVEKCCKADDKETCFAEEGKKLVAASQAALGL
Histamine H3 receptor (Rattus norvegicus, UniProt Q9QYN8), sequence (Q9QYN8 whole entry): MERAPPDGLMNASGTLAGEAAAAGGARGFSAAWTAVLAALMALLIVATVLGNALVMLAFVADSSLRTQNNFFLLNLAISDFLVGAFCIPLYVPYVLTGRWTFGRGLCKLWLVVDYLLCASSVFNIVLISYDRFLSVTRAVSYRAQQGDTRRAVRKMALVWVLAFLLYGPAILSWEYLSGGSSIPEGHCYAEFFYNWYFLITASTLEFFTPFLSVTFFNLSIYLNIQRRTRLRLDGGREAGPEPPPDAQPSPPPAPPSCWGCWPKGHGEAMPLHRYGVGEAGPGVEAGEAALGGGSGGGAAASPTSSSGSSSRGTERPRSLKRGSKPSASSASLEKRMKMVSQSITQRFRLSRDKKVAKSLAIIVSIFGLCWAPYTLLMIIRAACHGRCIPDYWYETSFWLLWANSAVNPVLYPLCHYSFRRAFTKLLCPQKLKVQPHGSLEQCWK
Histamine H3 receptor (Homo sapiens, UniProt Q9Y5N1), sequence (Q9Y5N1 whole entry): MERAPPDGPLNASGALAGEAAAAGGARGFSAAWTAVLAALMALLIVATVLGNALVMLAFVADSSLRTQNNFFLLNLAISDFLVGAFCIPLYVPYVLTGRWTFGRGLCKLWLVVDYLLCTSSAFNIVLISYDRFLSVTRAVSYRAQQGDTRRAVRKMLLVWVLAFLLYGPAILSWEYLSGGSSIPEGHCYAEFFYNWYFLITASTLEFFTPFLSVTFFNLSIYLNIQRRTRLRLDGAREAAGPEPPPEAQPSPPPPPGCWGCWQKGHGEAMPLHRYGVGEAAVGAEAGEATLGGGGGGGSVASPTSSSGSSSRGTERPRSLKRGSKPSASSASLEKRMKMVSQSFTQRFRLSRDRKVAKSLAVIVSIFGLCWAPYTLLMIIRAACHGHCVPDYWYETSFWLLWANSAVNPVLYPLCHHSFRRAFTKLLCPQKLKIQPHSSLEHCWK

SMILES: N#Cc1ccn2c(-c3ccccc3)c(-c3ccccc3)c(C(O)c3ccc(Cl)cc3)c2c1 (stereo unspecified)
- inhibition at 6.25 µg/mL [1]: 95%
- MIC [2]: 6.25 µg/mL (≈ 14.4 µM)
- IC50 [3]: 23000 nM

SMILES: COC(=O)C1=C2CCC(C(=O)N[C@@H](CCc3c[nH]c4ccccc34)C(=O)N(C)Cc3ccccc3)N2C(=O)C(NC(=O)OCc2ccccc2)C1 (stereo partly specified)
- Kb (Substance-P receptor): 200 nM
- Kb (Substance-K receptor): 200 nM

SMILES: COC(=O)c1cc(C(=O)c2cc3ccccc3o2)n2ccccc12
- inhibition (INH) (Mus musculus [4]): 36%

SMILES: COC(=O)C1=C2CCC(C(=O)N[C@@H](CCc3c[nH]c4ccccc34)C(=O)N(C)Cc3ccccc3)N2C(=O)C(NC(C)=O)C1 (stereo partly specified)
- Kb (Substance-P receptor): 126 nM
- Kb (Substance-K receptor): 631 nM

SMILES: CC(C)Cc1ccc(C(C)C(=O)O)cc1 (stereo unspecified) [IBUPROFEN]
- inhibition (INH) (Mus musculus [4]): 59%
- inhibition (INH) (Mus musculus [5]): 62%

SMILES: CC1=CC=CC2[C@@H]3C(=O)N(c4ccccc4)C(=O)[C@@H]3C(C(=O)c3cccs3)N12 (stereo partly specified)
- Activity (Streptomyces albus): Active
- Activity (Aspergillus flavus): Active
- Activity (Candida albicans): Active
- Activity (Escherichia coli): Active

SMILES: CCOC(=O)C1(C#N)C(c2ccc(Cl)cc2)=C(C(=O)c2cccs2)N2C(C)=CC=CC21 (stereo unspecified)
- Activity (Streptomyces albus): Active
- Activity (Aspergillus flavus): inactive
- Activity (Candida albicans): Active
- Activity (Escherichia coli): Active

SMILES: CCOC(=O)c1c(-c2ccc(Cl)cc2)cc2c3ccccc3ccn12
- MIC [6]: 2.3 µM (≈ 0.805 µg/mL)

SMILES: CCc1c(-c2ccc(O)cc2)c2ccc3cccc1n32
- IC50 (Estrogen receptor): 9.5 nM

SMILES: CCOC(=O)c1c(-c2ccc(F)cc2)cc2c3ccccc3ccn12
- Ratio [7]: 4.7
- MIC [6]: 1 µM (≈ 0.333 µg/mL)
- Ratio [8]: 7.6

SMILES: N#Cc1ccn2c(-c3ccccc3)c(-c3ccccc3)c(C(O)C3CCCCC3)c2c1 (stereo unspecified)
- MIC [2]: > 6.25 µg/mL
- IC50 [3]: 23000 nM

SMILES: N#Cc1cc(C(=O)c2cc3ccccc3o2)n2ccccc12
- inhibition (INH) (Mus musculus [5]): 24%

SMILES: N#Cc1ccn2c(-c3ccccc3)c(-c3ccccc3)c(C(O)c3ccccc3)c2c1 (stereo unspecified)
- MIC [9]: 12 µg/mL (≈ 30 µM)
- MIC (Leishmania donovani): 2.3 µg/mL (≈ 5.74 µM)
- inhibition at 6.25 µg/mL [1]: 100%
- Activity (Pichia kudriavzevii): inactive
- IC50 [10]: 48000 nM
- MIC [2]: 6.25 µg/mL (≈ 15.6 µM)
- MIC (Plasmodium falciparum): 2.3 µg/mL (≈ 5.74 µM)
- IC50 [11]: 35800 nM
- IC50 [3]: 35000 nM
- MIC (Trypanosoma cruzi): 3.2 µg/mL (≈ 7.99 µM)

SMILES: Cc1ccc(C(O)c2c(-c3ccccc3)c(-c3ccccc3)n3ccc(C#N)cc23)cc1 (stereo unspecified)
- inhibition at 6.25 µg/mL [1]: 90%
- MIC [2]: 6.25 µg/mL (≈ 15.1 µM)
- IC50 [3]: 22000 nM

SMILES: N#Cc1c(-c2ccc(F)cc2)c([N+](=O)[O-])c2c3ccccc3ccn12
- MIC [6]: 3.9 µM (≈ 1.29 µg/mL)

SMILES: COC(=O)C1=C2CCC(C(=O)N[C@@H](CCc3c[nH]c4ccccc34)C(=O)NCc3cc(C(F)(F)F)cc(C(F)(F)F)c3)N2C(=O)C(NC(C)=O)C1 (stereo partly specified)
- Kb (Substance-P receptor): 100 nM

SMILES: c1ccn2cc(-c3ccc(OCCCN4CCCCC4)cc3)cc2c1
- Kb (Histamine H3 receptor [12]): 3.16 nM
- Activity (Albumin): 50%
- half-life [13]: 10 min
- Kb (Histamine H3 receptor [14]): 19.5 nM
- Papp [15]: 14.1 ×10⁻⁶ cm/s

SMILES: Cc1c(-c2ccc(OCCCN3CCCCC3)cc2)cc2ccccn12
- half-life [13]: 54 min

SMILES: c1csc(-c2cc3ccccn3c2)c1
- Activity (Streptomyces albus): Active
- Activity (Aspergillus flavus): inactive
- Activity (Candida albicans): Active
- Activity (Escherichia coli): Active

— ChEMBL document CHEMBL1914343, “Recent progress in synthesis and bioactivity studies of indolizines” (Eur J Med Chem, 2011)
